In article PMC6825211 (Nature Communications, 2019):
Where “and” joins values, the source holds several entries; their conditions need not be identical. Equal values may be shown once.

What was measured:
INS-1E cells [1] = test: Caspase-3 activation Nucview assay, thapsigargin; assay type: cell-based, rat; settings: 0.1 µM thapsigargin, NucView 488
Experimental: Apoptosis was induced after 24 h of compound treatment by 0.1 µM Thapsigargin (Torics, Bristol, United Kingdom) with caspase-3 substrate, Nucview 488 (Biotium, CA) in the treatment.
1 50 Supplementary Figure 3
100 Cell number Cell Number
evaluated through Nucview488 and Hoechst33342.
were analyzed through qRT-PCR.
detected on plate reader.

INS-1E cells [2] = test: Caspase-3 activation Nucview assay, TNFα/IFNγ with 33 mM glucose; assay type: cell-based, rat; settings: up to 6.7 µM neratinib
MLD–STZ C57BL/6J mice [3] = test: MLD–STZ model: intraperitoneal glucose tolerance test (ipGTT); assay type: in vivo, mouse; parameters: ipGTT glucose / AUC ipGTT: unit not given here
Experimental: C57Bl/6J mice were injected with 40 mg/kg streptozotocin or citrate buffer for 5 consecutive days. […] In d, basal glucose values were normalized to 100%. e Insulin secretion measured from retro-orbital blood draw during an ipGTT measured before (0 min) and 15 min after glucose injection; data are expressed as the ratio of secreted insulin at 15 min/0 min (stimulatory index). f The ratio of secreted insulin and glucose is calculated at fed state. g–i Mice were killed at day 35. g β-cell mass (given as percentage of the whole pancreatic section from ten sections spanning the width of the pancreas) and quantitative analyses from triple staining for h TUNEL or i Ki67, insulin, and DAPI expressed as percentage of TUNEL- or Ki67-positive β-cells ±SEM. An average number of 2331 (h), or 26369 (i) β-cells were counted. n = 9 mice/group for (a); n = 4–12 for (b); n = 5–15 for (c) and (d); n = 12–19 for (e); n = 8–14 for (f); n = 4–9 for (g); n = 4–11 for (h); and n = 6–11 mice/groupfor (i); all from three independent experiments).
For intraperitoneal glucose tolerance tests, mice were fasted 12 h overnight and injected i.p. with glucose (40%; B.Braun, Melsungen, Germany) at a dose of 1 g/kg body weight. Blood samples were obtained at time points 0, 15, 30, 60, 90, and 120 min for glucose measurements by using a Glucometer. For i.p. insulin tolerance tests, mice were injected with 0.75 U/kg body weight recombinant human insulin (Novolin, Novo Nordisk) after 4–5-h fasting, and glucose concentration was determined with the Glucometer. Insulin secretion was measured before (0 min) and after (15 and 30 min) i.p. injection of glucose (2 g/kg) and measured by using ultrasensitive mouse Elisa kit (ALPCO Diagnostics, Salem, NH).

MLD–STZ C57BL/6J mice [4] = test: MLD–STZ model: ratio of secreted insulin and glucose at fed state; assay type: in vivo, mouse
[5] = test system: isolated islets from WT C57Bl/6 mice; test: β-cell apoptosis (TUNEL), WT islets, IL-1β/IFNγ 72 h, neratinib added for last 24 h; assay type: cell-based, mouse; settings: for TUNEL%: Cytokines+Nera
CHEK1 = CHEK1 (Homo sapiens, UniProt O14757); test: Nanosyn kinase profiling, mobility shift assay; settings: read-out: % inhibition by neratinib
FAK = FAK (Homo sapiens, UniProt Q05397); test: Nanosyn kinase profiling, mobility shift assay; settings: read-out: % inhibition by neratinib
GSK-3-BETA = GSK-3-BETA (Homo sapiens, UniProt P49841); test: Nanosyn kinase profiling, mobility shift assay; settings: read-out: % inhibition by neratinib
MEK6 = MEK6 (Homo sapiens, UniProt P52564); test: Nanosyn kinase profiling, mobility shift assay; settings: read-out: % inhibition by neratinib
PKC-ALPHA = PKC-ALPHA (Homo sapiens, UniProt P17252); test: Nanosyn kinase profiling, mobility shift assay; settings: read-out: % inhibition by neratinib
ROCK1 = ROCK1 (Homo sapiens, UniProt Q13464); test: Nanosyn kinase profiling, mobility shift assay; settings: read-out: % inhibition by neratinib
SGK1 = SGK1 (Homo sapiens, UniProt O00141); test: Nanosyn kinase profiling, mobility shift assay; settings: read-out: % inhibition by neratinib
SRC = SRC (Homo sapiens, UniProt P12931); test: Nanosyn kinase profiling, mobility shift assay; settings: read-out: % inhibition by neratinib
Chain of SRC (P12931 whole entry, species assumed): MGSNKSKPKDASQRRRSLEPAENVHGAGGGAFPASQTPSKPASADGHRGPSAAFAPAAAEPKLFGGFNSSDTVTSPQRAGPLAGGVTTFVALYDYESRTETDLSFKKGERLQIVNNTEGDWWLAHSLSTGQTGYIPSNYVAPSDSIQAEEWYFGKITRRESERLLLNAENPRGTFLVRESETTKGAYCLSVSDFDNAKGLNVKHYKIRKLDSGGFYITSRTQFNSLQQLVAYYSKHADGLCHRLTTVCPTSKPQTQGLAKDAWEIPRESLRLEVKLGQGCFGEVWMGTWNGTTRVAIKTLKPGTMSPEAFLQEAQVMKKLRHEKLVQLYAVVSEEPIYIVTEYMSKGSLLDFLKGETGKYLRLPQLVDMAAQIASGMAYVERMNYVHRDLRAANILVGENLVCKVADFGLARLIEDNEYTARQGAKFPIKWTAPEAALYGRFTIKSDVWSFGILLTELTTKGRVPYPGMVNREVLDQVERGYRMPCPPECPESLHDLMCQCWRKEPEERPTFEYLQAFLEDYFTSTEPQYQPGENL

Chain of SGK1 (O00141 whole entry): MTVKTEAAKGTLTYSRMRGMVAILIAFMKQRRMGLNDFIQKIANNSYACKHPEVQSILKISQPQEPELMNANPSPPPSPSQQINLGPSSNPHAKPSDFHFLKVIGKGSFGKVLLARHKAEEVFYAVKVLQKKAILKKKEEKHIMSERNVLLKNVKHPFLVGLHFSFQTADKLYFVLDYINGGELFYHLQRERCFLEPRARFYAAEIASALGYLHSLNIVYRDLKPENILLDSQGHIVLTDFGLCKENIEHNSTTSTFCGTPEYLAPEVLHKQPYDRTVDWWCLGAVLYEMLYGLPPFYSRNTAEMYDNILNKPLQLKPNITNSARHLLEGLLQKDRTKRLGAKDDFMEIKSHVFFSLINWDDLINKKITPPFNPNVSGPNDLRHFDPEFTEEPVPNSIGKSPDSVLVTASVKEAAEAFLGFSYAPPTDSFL
Chain of MEK6 (P52564 whole entry): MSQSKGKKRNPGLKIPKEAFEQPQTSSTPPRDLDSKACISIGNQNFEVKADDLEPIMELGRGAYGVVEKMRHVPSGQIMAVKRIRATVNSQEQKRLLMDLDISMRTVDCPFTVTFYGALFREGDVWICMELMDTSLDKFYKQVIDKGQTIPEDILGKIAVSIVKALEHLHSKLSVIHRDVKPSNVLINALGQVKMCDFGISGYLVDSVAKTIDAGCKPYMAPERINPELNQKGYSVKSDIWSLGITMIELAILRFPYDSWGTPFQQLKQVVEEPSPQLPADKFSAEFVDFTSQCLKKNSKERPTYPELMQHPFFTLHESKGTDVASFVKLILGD
Chain of GSK-3-BETA (P49841 whole entry): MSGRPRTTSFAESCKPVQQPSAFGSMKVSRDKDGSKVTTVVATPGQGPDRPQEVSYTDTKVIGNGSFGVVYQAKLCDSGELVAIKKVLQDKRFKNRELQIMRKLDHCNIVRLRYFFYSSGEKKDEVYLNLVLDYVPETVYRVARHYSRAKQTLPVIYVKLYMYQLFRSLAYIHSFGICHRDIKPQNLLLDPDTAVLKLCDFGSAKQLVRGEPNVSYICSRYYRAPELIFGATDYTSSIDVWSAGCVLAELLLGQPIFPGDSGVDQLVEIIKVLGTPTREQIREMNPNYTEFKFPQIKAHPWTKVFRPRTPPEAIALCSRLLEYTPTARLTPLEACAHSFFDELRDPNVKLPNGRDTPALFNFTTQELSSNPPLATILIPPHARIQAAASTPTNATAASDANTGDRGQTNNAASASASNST
Chain of FAK (Q05397 whole entry): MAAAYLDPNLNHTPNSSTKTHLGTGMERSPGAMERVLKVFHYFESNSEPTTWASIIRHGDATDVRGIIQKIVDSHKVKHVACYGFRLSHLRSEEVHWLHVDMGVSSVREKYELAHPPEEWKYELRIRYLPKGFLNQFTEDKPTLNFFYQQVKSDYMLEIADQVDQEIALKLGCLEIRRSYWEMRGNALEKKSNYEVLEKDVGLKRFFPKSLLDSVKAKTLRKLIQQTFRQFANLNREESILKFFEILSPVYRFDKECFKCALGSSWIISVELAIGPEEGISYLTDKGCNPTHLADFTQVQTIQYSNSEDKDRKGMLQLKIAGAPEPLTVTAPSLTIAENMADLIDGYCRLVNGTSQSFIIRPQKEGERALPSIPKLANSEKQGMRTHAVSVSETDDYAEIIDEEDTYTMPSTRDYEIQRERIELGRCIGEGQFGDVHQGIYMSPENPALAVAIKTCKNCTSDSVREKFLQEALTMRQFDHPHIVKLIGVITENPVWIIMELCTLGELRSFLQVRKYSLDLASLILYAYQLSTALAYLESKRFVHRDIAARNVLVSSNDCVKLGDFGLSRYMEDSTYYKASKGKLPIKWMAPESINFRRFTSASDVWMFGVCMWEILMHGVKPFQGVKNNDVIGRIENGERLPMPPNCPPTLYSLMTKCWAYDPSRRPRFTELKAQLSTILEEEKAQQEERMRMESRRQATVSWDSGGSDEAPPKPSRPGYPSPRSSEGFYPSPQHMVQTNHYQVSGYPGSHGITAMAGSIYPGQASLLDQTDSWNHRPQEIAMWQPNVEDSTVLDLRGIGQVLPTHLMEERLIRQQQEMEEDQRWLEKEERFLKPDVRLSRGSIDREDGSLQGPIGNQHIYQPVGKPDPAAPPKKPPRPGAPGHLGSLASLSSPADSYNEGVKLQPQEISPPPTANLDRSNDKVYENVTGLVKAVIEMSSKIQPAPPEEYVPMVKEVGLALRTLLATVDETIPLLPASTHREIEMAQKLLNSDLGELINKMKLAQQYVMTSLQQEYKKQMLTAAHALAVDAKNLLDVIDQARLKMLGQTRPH
Chain of ROCK1 (Q13464 whole entry): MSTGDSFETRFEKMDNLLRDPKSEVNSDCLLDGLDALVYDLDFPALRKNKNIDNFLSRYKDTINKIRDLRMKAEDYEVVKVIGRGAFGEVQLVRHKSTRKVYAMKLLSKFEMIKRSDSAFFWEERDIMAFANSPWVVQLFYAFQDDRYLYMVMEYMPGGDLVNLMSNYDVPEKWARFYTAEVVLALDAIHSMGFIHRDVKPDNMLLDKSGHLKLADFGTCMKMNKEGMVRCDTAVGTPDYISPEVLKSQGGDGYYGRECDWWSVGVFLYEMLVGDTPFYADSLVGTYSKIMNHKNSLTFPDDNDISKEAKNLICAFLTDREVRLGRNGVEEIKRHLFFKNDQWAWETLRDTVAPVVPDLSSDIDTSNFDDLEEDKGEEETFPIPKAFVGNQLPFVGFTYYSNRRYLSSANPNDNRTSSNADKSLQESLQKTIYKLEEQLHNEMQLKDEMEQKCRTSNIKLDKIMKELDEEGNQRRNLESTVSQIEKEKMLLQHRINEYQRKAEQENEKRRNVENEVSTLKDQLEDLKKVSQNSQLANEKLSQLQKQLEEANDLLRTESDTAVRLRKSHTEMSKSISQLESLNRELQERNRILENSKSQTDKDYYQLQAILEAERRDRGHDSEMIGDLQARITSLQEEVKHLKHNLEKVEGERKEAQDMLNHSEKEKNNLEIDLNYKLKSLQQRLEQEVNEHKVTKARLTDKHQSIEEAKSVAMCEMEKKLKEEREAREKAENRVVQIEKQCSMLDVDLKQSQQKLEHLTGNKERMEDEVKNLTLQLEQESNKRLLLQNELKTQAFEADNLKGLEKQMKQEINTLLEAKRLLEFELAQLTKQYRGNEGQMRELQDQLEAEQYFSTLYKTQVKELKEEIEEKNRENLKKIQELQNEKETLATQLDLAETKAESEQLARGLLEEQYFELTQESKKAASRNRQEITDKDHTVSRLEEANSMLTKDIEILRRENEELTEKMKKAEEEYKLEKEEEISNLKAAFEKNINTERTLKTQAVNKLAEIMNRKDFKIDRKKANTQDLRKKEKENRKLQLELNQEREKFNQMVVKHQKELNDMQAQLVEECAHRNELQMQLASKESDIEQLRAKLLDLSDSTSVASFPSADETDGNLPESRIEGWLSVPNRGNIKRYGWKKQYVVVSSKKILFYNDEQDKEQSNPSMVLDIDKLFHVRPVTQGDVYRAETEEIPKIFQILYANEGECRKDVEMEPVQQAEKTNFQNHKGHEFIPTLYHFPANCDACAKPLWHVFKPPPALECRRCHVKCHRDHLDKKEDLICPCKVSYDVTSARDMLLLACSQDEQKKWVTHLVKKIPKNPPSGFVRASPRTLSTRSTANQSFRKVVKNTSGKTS

For `CCOc1cc2ncc(C#N)c(Nc3ccc(OCc4ccccn4)c(Cl)c3)c2cc1NC(=O)/C=C/CN(C)C` [neratinib], the “caspase-3 activation induced by thapsigargin” value (INS-1E cells [1]) was “dose-dependently abolished”, the “caspase-3 activation induced by TNFα/IFNγ and high glucose” value (INS-1E cells [2]) was “largely inhibited” and the “glucose tolerance in STZ mice” value (MLD–STZ C57BL/6J mice [3]; 5 mg/kg i.p. daily) was “significantly improved glucose tolerance”. For the same molecule, the ipGTT glucose (MLD–STZ C57BL/6J mice [3]; NeraCtr, 0 min, Mean) was 59.25, the ipGTT glucose (MLD–STZ C57BL/6J mice [3]; NeraCtr, 0 min after glc, individual mice) was 51 and 48 and 70 and 68 and the ipGTT glucose (MLD–STZ C57BL/6J mice [3]; NeraCtr, 15 min, Mean) was 210.75. For the same molecule, the ipGTT glucose (MLD–STZ C57BL/6J mice [3]; NeraCtr, 15 min after glc, individual mice) was 211 and 183 and 258 and 191, the ipGTT glucose (MLD–STZ C57BL/6J mice [3]; NeraCtr, 30 min, Mean) was 316.5 and the ipGTT glucose (MLD–STZ C57BL/6J mice [3]; NeraCtr, 30 min after glc, individual mice) was 290 and 203 and 500 and 273. The ipGTT glucose (MLD–STZ C57BL/6J mice [3]; NeraCtr, 60 min, Mean) was 219.25, the ipGTT glucose (MLD–STZ C57BL/6J mice [3]; NeraCtr, 60 min after glc, individual mice) was 166 and 171 and 373 and 167 and the ipGTT glucose (MLD–STZ C57BL/6J mice [3]; NeraCtr, 90 min, Mean) was 134.5. The ipGTT glucose (MLD–STZ C57BL/6J mice [3]; NeraCtr, 90 min after glc, individual mice) was 133 and 136 and 158 and 111, the ipGTT glucose (MLD–STZ C57BL/6J mice [3]; NeraCtr, 120 min, MEAN) was 96 and the ipGTT glucose (MLD–STZ C57BL/6J mice [3]; NeraCtr, 120 min after glc, individual mice) was 91 and 96 and 116 and 81. For the same molecule, the “AUC ipGTT” value (MLD–STZ C57BL/6J mice [3]; NeraCtr, individual mice) was 20407.5 and 18322.5 and 14535 and 19072.5, the ipGTT glucose (MLD–STZ C57BL/6J mice [3]; NeraSTZ, 0 min, mean line) was 61.5 and the ipGTT glucose (MLD–STZ C57BL/6J mice [3]; NeraSTZ, 0 min after glc, individual mice) was 67 and 66 and 51 and 57 and 80 and 63 and 62 and 69 and 65 and 44. The ipGTT glucose (MLD–STZ C57BL/6J mice [3]; NeraSTZ, 15 min, mean line) was 285.917, the ipGTT glucose (MLD–STZ C57BL/6J mice [3]; NeraSTZ, 15 min after glc, individual mice) was 304 and 272 and 259 and 246 and 291 and 315 and 312 and 420 and 217 and 264 and the ipGTT glucose (MLD–STZ C57BL/6J mice [3]; NeraSTZ, 30 min, mean line) was 319.5. The ipGTT glucose (MLD–STZ C57BL/6J mice [3]; NeraSTZ, 30 min after glc, individual mice) was 308 and 348 and 303 and 268 and 319 and 424 and 341 and 371 and 315 and 292 and 282 and 263, the ipGTT glucose (MLD–STZ C57BL/6J mice [3]; NeraSTZ, 60 min, mean line) was 284.417 and the ipGTT glucose (MLD–STZ C57BL/6J mice [3]; NeraSTZ, 60 min after glc, individual mice) was 274 and 307 and 368 and 214 and 271 and 308 and 291 and 343 and 321 and 283 and 219. The ipGTT glucose (MLD–STZ C57BL/6J mice [3]; NeraSTZ, 90 min after glc, individual mice) was 181 and 290 and 234 and 159 and 228 and 264 and 184 and 260 and 250 and 205 and 248 and 195, the ipGTT glucose (MLD–STZ C57BL/6J mice [3]; NeraSTZ, 120 min after glc, individual mice) was 136 and 229 and 175 and 112 and 213 and 180 and 169 and 210 and 211 and 164 and 187 and the “AUC ipGTT” value (MLD–STZ C57BL/6J mice [3]; NeraSTZ, individual mice) was 27682.5 and 33750 and 31770 and 23017.5 and 30135 and 34725 and 29565 and 36360 and 31732.5. The ins/gluc (MLD–STZ C57BL/6J mice [4]; NeraCtr, Mean) was 4.232, the ins/gluc (MLD–STZ C57BL/6J mice [4]; NeraCtr, fed state, individual mice) was 5.92 and 11.7581 and 5.035 and 1.3144 and 2.029 and 2.349 and 1.295 and 4.152 and the ins/gluc (MLD–STZ C57BL/6J mice [4]; NeraSTZ, Mean) was 2.006. For the same molecule, the ins/gluc (MLD–STZ C57BL/6J mice [4]; NeraSTZ, fed state, individual mice) was 2.868 and 0.965 (2×) and 1.859 and 3.923 and 1.035 and 2.9255 and 4.307 and 0.6012 and 1.262 and 1.53 and 2.798 and 0.7155 and 2.33, the TUNEL% ([5]; MEAN) was 0.4111% and the TUNEL% ([5]; individual replicates) was 0.4072% and 0.3399% and 0.4861%. For the same molecule, the “β-cell survival after cytokine-induced apoptosis” value ([5]; IL-1β/IFNγ 48 h, then 10 μM neratinib another 24 h) was “fully restored β-cell survival”, the inhibition at 10 µM (CHEK1) was 27% and the inhibition at 10 µM (FAK) was 8%. For the same molecule, the inhibition at 10 µM (GSK-3-BETA) was 23%, the inhibition at 10 µM (MEK6) was 9% and the inhibition at 10 µM (PKC-ALPHA) was 7%. The inhibition at 10 µM (ROCK1) was -48%, the inhibition at 10 µM (SGK1) was 28% and the inhibition at 10 µM (SRC) was 73%.
